pKa and effective mobility data for one compound are collected here from patent US8562804B2 (priority 2006, dated 2013).

“And” between values parts separate entries of the source, which are not always exact repeats. Equal entries are not always repeated. Where two headings read alike, the source gives them in different places.

A short description of series [1]: physchem.
Series [2] is classed as physicochemical.

On to `O=[N+]([O-])c1ccccc1O` [2NP, 2-nitrophenol], for which the pKa in series [1] amounted to 6.7. For the same compound, the effective mobility is 12.2(±0.3)·10^−9 m^2/Vs and 13.4(±0.3)·10^−9 m^2/Vs in series [2] (pH 6.4); 15.8(±0.2)·10^−9 m^2/Vs and 16.3(±0.2)·10^−9 m^2/Vs in series [2] (pH 6.8).
